# Test results taken from patent publication US20100292255A1, “Therapeutic Compounds and Their Use in Treating Diseases and Disorders” (Myriad Pharmaceuticals, Inc., priority 2007, published 2010).
# Molecular target: T1, purified human Hsp90
# T1 construct: purified human Hsp90 (Stressgen, SPP-770)
# Test: Hsp90 binding assay: displacement of BODIPY-labeled geldanamycin measured by fluorescence polarization
# Settings: BODIPY-GM 10 nM, Hsp90 30 nM, overnight at room temperature; read-out: GM displacement from purified Hsp90 measured by FP IC 50
# Experimental: Binding of the Example Compounds to purified Hsp90 was assayed by measuring the displacement of BODIPY-labeled geldanamycin (BODIPY-GM) from purified human Hsp90, using a fluorescence polarization assay adapted from Kim et al. (J. Biomolec. Screening, 9(5):375-381 (2004)). Compound dilutions (in 100% DMSO) were added to black-bottom 96-well plates (Greiner Bio-One, Monroe, N.C.) in 2% DMSO final, and equal volumes of BODIPY-GM (10 nM final) and purified human Hsp90 (Stressgen, SPP-770; 30 nM final) (Assay Designs, Ann Arbor, Mich.) in assay buffer (20 mM HEPES-KOH pH 7.3, 50 mM KCl, 5 mM MgCl2, 20 mM Na2MoO4, 0.01% NP-40, 0.1 mg/mL bovine gamma globulin [P2045; Invitrogen, Carlsbad, Calif.], 2 mM DTT) were added sequentially to yield a final volume of 50 microliters. Plates were incubated overnight at room temperature. Parallel and perpendicular fluorescence measurements were read (Analyst AD plate reader; LJL BioSystems, Middletown, Conn.) with excitation/emission wavelengths of 485/530 nm. Background fluorescence (buffer only) was subtracted, and fluorescence polarization (FP) values, expressed in mP units, were calculated from parallel and perpendicular fluorescence readings as follows:
# FP=(parallel−perpendicular)/(parallel+perpendicular)*1000.
# Percent inhibition was calculated by normalizing the FP values to those obtained in parallel reactions containing DMSO and subtracting these normalized values from 100%. Intrinsic compound fluorescence was independently monitored, and FP data points confounded by compound fluorescence were excluded from the analysis.
row,SMILES,IC50
1,"C[C@H](O)C(=O)N1CCC(CCn2c(Sc3cc4c(cc3Br)CCO4)nc3c(N)ncnc32)CC1 [Example Compound 173, (2S)-1-[4-(2-{6-Amino-8-[(5-bromo-2,3-dihydro-1-benzofuran-6-yl)thio]-9H-purin-9-yl}ethyl)piperidin-1-yl]-1-oxopropan-2-ol]",35 nM
2,"COC(=O)c1cc2c(cc1Sc1nc3c(N)ncnc3n1CCC1CCNCC1)OCO2 [Example Compound 174, Methyl 6-{[6-amino-9-(2-piperidin-4-ylethyl)-9H-purin-8-yl]thio}-1,3-benzodioxole-5-carboxylate]",150 nM
3,"CCOC(=O)c1cc2c(cc1Sc1nc3c(N)ncnc3n1CCC1CCNCC1)OCO2 [Example Compound 175, ethyl 6-{[6-amino-9-(2-piperidin-4-ylethyl)-9H-purin-8-yl]thio}-1,3-benzodioxole-5-carboxylate]",70 nM
4,"Nc1ncnc2c1nc(Sc1cc3ccoc3cc1Br)n2CCC1CCN(C=O)CC1 [Example Compound 176, 4-(2-{6-Amino-8-[(6-bromo-1-benzofuran-5-yl)thio]-9H-purin-9-yl}ethyl)piperidine-1-carbaldehyde]",900 nM
5,"Nc1ncnc2c1nc(Sc1cc3occc3cc1Cl)n2CCC1CCN(C=O)CC1 [Example Compound 178, 4-(2-{6-Amino-8-[(5-chloro-1-benzofuran-6-yl)thio]-9H-purin-9-yl}ethyl)piperidine-1-carbaldehyde]",305 nM
6,"Nc1ncnc2c1nc(Sc1cc(Br)c3c(c1)CCO3)n2CCC1CCN(C=O)CC1 [Example Compound 179, 4-(2-{6-Amino-8-[(7-bromo-2,3-dihydro-1-benzofuran-5-yl)thio]-9H-purin-9-yl}ethyl)piperidine-1-carbaldehyde]",4000 nM
7,"Nc1ncnc2c1nc(Sc1cc3c(cc1Br)OCC3)n2CCC1CCN(C=O)CC1 [Example Compound 180, 4-(2-{6-Amino-8-[(6-bromo-2,3-dihydro-1-benzofuran-5-yl)thio]-9H-purin-9-yl}ethyl)piperidine-1-carbaldehyde]",400 nM
8,"CC1(C)CCc2cc(Br)c(Sc3nc4c(N)ncnc4n3CCC3CCN(C=O)CC3)cc21 [Example Compound 181, 4-(2-{6-Amino-8-[(6-bromo-3,3-dimethyl-2,3-dihydro-1H-inden-5-yl)thio]-9H-purin-9-yl}ethyl)piperidine-1-carbaldehyde]",1500 nM
9,"Nc1ncnc2c1nc(Sc1cc(Br)c3occc3c1)n2CCC1CCN(C=O)CC1 [Example Compound 182, 4-(2-{6-Amino-8-[(7-bromo-1-benzofuran-5-yl)thio]-9H-purin-9-yl}ethyl)piperidine-1-carbaldehyde]",> 5000 nM
10,"Nc1ncnc2c1nc(Sc1cc3c(cc1F)OCCO3)n2CCC1CCN(C=O)CC1 [Example Compound 183, 4-(2-{6-Amino-8-[(7-fluoro-2,3-dihydro-1,4-benzodioxin-6-yl)thio]-9H-purin-9-yl}ethyl)piperidine-1-carbaldehyde]",2900 nM
11,"CN1CCOc2cc(Br)c(Sc3nc4c(N)ncnc4n3CCC3CCN(C=O)CC3)cc21 [Example Compound 184, 4-(2-{6-Amino-8-[(7-bromo-4-methyl-3,4-dihydro-2H-1,4-benzoxazin-6-yl)thio]-9H-purin-9-yl}ethyl)piperidine-1-carbaldehyde]",310 nM
12,"CN1CCOc2cc(Sc3nc4c(N)ncnc4n3CCC3CCN(C=O)CC3)c(Cl)cc21 [Example Compound 185, 4-(2-{6-Amino-8-[(6-chloro-4-methyl-3,4-dihydro-2H-1,4-benzoxazin-7-yl)thio]-9H-purin-9-yl}ethyl)piperidine-1-carbaldehyde]",400 nM
13,"CN1CCOc2cc(Sc3nc4c(N)ncnc4n3CCC3CCN(C=O)CC3)c(Br)cc21 [Example Compound 186, 4-(2-{6-Amino-8-[(6-bromo-4-methyl-3,4-dihydro-2H-1,4-benzoxazin-7-yl)thio]-9H-purin-9-yl}ethyl)piperidine-1-carbaldehyde]",65 nM
14,"CN1CCOc2cc(Sc3nc4c(N)ncnc4n3CCC3CCN(C=O)CC3)ccc21 [Example Compound 187, 4-(2-{6-Amino-8-[(4-methyl-3,4-dihydro-2H-1,4-benzoxazin-7-yl)thio]-9H-purin-9-yl}ethyl)piperidine-1-carbaldehyde]",5000 nM
15,"Nc1ncnc2c1nc(Sc1cc3c(cc1Cl)OCO3)n2CCC1CCN(C=O)CC1 [Example Compound 188, 4-(2-{6-Amino-8-[(6-chloro-1,3-benzodioxol-5-yl)thio]-9H-purin-9-yl}ethyl)piperidine-1-carbaldehyde]",205 nM
16,"Nc1ncnc2c1nc(Sc1cc3occc3cc1Br)n2CCC1CCC(F)(F)CC1 [Example Compound 189, 8-[(5-Bromo-1-benzofuran-6-yl)thio]-9-[2-(4,4-difluorocyclohexyl)ethyl]-9H-purin-6-amine]",> 5000 nM
17,"Nc1ncnc2c1nc(Sc1cc3c(cc1Br)OCO3)n2CCC1CCC(F)(F)CC1 [Example Compound 190, 8-[(6-Bromo-1,3-benzodioxol-5-yl)thio]-9-[2-(4,4-difluorocyclohexyl)ethyl]-9H-purin-6-amine]",650 nM
18,"CC(C)(C)OC(=O)N1CCC(CCn2c(Sc3cc4occc4cc3Br)nc3c(N)ncnc32)CC1 [Example Compound 191, tert-Butyl 4-(2-{6-amino-8-[(5-bromo-1-benzofuran-6-yl)thio]-9H-purin-9-yl}ethyl)piperidine-1-carboxylate]",2500 nM
19,"CC(C)(C)OC(=O)N1CCC(CCn2c(Sc3cc4c(cc3C(F)(F)F)OCC4)nc3c(N)ncnc32)CC1 [Example Compound 192, tert-Butyl 4-[2-(6-amino-8-{[6-(trifluoromethyl)-2,3-dihydro-1-benzofuran-5-yl]thio}-9H-purin-9-yl)ethyl]piperidine-1-carboxylate]",> 5000 nM
20,"CN(C)C(=O)c1cc2c(cc1Sc1nc3c(N)ncnc3n1CCC1CCN(C=O)CC1)OCO2 [Example Compound 193, 6-({6-amino-9-[2-(1-formylpiperidin-4-yl)ethyl]-9H-purin-8-yl}thio)-N,N-dimethyl-1,3-benzodioxole-5-carboxamide]",4300 nM
21,"CC(=O)OCC(=O)N1CCC(CCn2c(Sc3cc4occc4cc3Br)nc3c(N)ncnc32)CC1 [Example Compound 194, 2-[4-(2-{6-Amino-8-[(5-bromo-1-benzofuran-6-yl)thio]-9H-purin-9-yl}ethyl)piperidin-1-yl]-2-oxoethyl acetate]",150 nM
22,"Nc1ncnc2c1nc(Sc1cc3occc3cc1Br)n2CCC1CCN(C(=O)CO)CC1 [Example Compound 195, 2-[4-(2-{6-Amino-8-[(5-bromo-1-benzofuran-6-yl)thio]-9H-purin-9-yl}ethyl)piperidin-1-yl]-2-oxoethanol]",45 nM
23,"Nc1ncnc2c1nc(Sc1cc3occc3cc1Br)n2CCC1CCNCC1 [Example Compound 197, 8-[(5-Bromo-1-benzofuran-6-yl)thio]-9-(2-piperidin-4-ylethyl)-9H-purin-6-amine]",150 nM
24,"CC(=O)O[C@@H](C)C(=O)N1CCC(CCn2c(Sc3cc4occc4cc3Br)nc3c(N)ncnc32)CC1 [Example Compound 198, (1S)-2-[4-(2-{6-Amino-8-[(5-bromo-1-benzofuran-6-yl)thio]-9H-purin-9-yl}ethyl)piperidin-1-yl]-1-methyl-2-oxoethyl acetate]",110 nM
25,"C[C@H](O)C(=O)N1CCC(CCn2c(Sc3cc4occc4cc3Br)nc3c(N)ncnc32)CC1 [Example Compound 199, (2S)-1-[4-(2-{6-Amino-8-[(5-bromo-1-benzofuran-6-yl)thio]-9H-purin-9-yl}ethyl)piperidin-1-yl]-1-oxopropan-2-ol]",190 nM
26,"C[C@@H](OC(=O)C(C)(C)C)C(=O)N1CCC(CCn2c(Sc3cc4occc4cc3Br)nc3c(N)ncnc32)CC1 [Example Compound 200, (1R)-2-[4-(2-{6-Amino-8-[(5-bromo-1-benzofuran-6-yl)thio]-9H-purin-9-yl}ethyl)piperidin-1-yl]-1-methyl-2-oxoethyl pivalate]",185 nM
27,"C[C@@H](O)C(=O)N1CCC(CCn2c(Sc3cc4occc4cc3Br)nc3c(N)ncnc32)CC1 [Example Compound 201, (2R)-1-[4-(2-{6-Amino-8-[(5-bromo-1-benzofuran-6-yl)thio]-9H-purin-9-yl}ethyl)piperidin-1-yl]-1-oxopropan-2-ol]",200 nM
28,"C[C@H](O)C(=O)N1CCC(CCn2c(Sc3cc4c(cc3Cl)OCO4)nc3c(N)ncnc32)CC1 [Example Compound 203, (2S)-1-[4-(2-{6-Amino-8-[(6-chloro-1,3-benzodioxol-5-yl)thio]-9H-purin-9-yl}ethyl)piperidin-1-yl]-1-oxopropan-2-ol]",395 nM
29,"C[C@@H](O)C(=O)N1CCC(CCn2c(Sc3cc4c(cc3Cl)OCO4)nc3c(N)ncnc32)CC1 [Example Compound 204, (2R)-1-[4-(2-{6-Amino-8-[(6-chloro-1,3-benzodioxol-5-yl)thio]-9H-purin-9-yl}ethyl)piperidin-1-yl]-1-oxopropan-2-ol]",400 nM
